We go through eleven molecules from ChEMBL document CHEMBL1136590, “Synthesis, spectral studies and screening for amoebicidal activity of new palladium(II) complexes derived from thiophene-2-carboxaldehyde thiosemicarbazones” (Bioorg Med Chem Lett, 2003).

pIC50: −log10 of the molar value.

The subject of one test is Entamoeba histolytica. The experiment in a line: In vitro amoebicidal activity against HM-1:1MMS strain of Entamoeba histolytica. Type of test: functional, organism-based.
Details: not given
As for “Di(methylsulfinyl)methane with PdCl2 complex”, the pIC50 was 5.08.

“thiophene-2-carbaldehyde N-(2-chlorobenzyl)thiosemicarbazone with PdCl2 complex” gave a pIC50 of 5.51.

For “thiophene-2-carbaldehyde N-(2,6-difluorophenyl)thiosemicarbazone with PdCl2 complex”, the pIC50 was 5.62.

“3,4-Dihydro-2H-quinoline-1-carbothioic acid thiophen-2-ylmethylene-hydrazide with PdCl2 complex”: the pIC50 was 5.94.

“thiophene-2-carbaldehyde N-(2,4-difluorophenyl)thiosemicarbazone with PdCl2 complex” gave a pIC50 of 5.58.

The test is the same for the next values; noted with them: Entamoeba histolytica.
As to `Cc1ncc([N+](=O)[O-])n1CCO` [METRONIDAZOLE], the pIC50 was 5.69.

`S=C(N/N=C/c1cccs1)N1CCCC1` gave a pIC50 of 5.49.

On to `S=C(N/N=C/c1cccs1)N1CCCc2ccccc21`, for which the pIC50 is 5.56.

`S=C(NCc1ccccc1Cl)N/N=C/c1cccs1` showed a pIC50 of 5.24.

Take `Fc1cccc(F)c1/N=C(\S)N/N=C/c1cccs1`: the pIC50 is 5.24.

The molecule `Fc1ccc(/N=C(\S)N/N=C/c2cccs2)c(F)c1` had a pIC50 of 5.21.
